Experiment: Stability testing: contents of chlorhexidine gluconate (liquid chromatography) and isopropyl alcohol (gas chromatography) in the wet wipe, long-term experiment
Type: physicochemical
Method: The test was performed by chromatography. The content of chlorhexidine gluconate in the 2% chlorhexidine gluconate-isopropyl alcohol solution and the wet wipe was quantitatively detected by liquid chromatography. The content of isopropyl alcohol in the wet wipe was quantitatively detected by gas chromatography. In this test, the contents of chlorhexidine gluconate and isopropyl alcohol were used as evaluation indexes. The contents of chlorhexidine gluconate and isopropyl alcohol were measured by a long-term experiment. Relative standard deviation (RSD) was used to determine the stability of the contents of chlorhexidine gluconate and isopropyl alcohol in the chlorhexidine gluconate-isopropyl alcohol wet wipe. The contents were respectively measured at Month 0, Month 1, Month 3, Month 6, Month 9, Month 12, Month 18 and Month 24. Based on the content at Month 0 (100%), the ratio of the content at the subsequent time points to the content at Month 0 was calculated respectively, as shown in Table 1.

Row | SMILES | ratio of the content to the content at Month 0 (Month 0 (set as 100%)) | ratio of the content to the content at Month 0 (Month 3) | ratio of the content to the content at Month 0 (Month 6) | ratio of the content to the content at Month 0 (Month 9) | ratio of the content to the content at Month 0 (Month 12) | ratio of the content to the content at Month 0 (Month 18) | ratio of the content to the content at Month 0 (Month 24)
1 | CC(C)O [Isopropyl alcohol] | 100% | 97.5% | 100.8% | 100% | 99.2% | 100.8% | 102.5%
2 | N=C(NCCCCCCNC(=N)NC(=N)Nc1ccc(Cl)cc1)NC(=N)Nc1ccc(Cl)cc1.O=C(O)[C@H](O)[C@@H](O)[C@H](O)[C@H](O)CO.O=C(O)[C@H](O)[C@@H](O)[C@H](O)[C@H](O)CO [Chlorhexidine gluconate] | 100% | 100% | 100% | 100% | 100% | 100% | 106.2%^

Source: patent publication US20250064699A1, “CHLORHEXIDINE GLUCONATE-ISOPROPYL ALCOHOL WET WIPE PRODUCT AND PREPARATION METHOD THEREOF” (Dukal, LLC, priority 2021, published 2025)
